Key:
[1] = logP by HPLC on reversed-phase column (C18), acidic range; assay type: physicochemical; settings: reversed-phase HPLC column (C18), formic acid in water/acetonitrile
Procedure: The logP values were determined according to EEC Directive 79/831 Annex V.A8 by HPLC (high-performance liquid chromatography) on a reversed-phase column (C18) using the following methods:
Calibration was carried out using a homologous series of straight-chain alkan-2-ones (having 3 to 16 carbon atoms) with known logP values. The values between successive alkanones are determined by linear regression.

[2] = tested on: southern root-knot nematode (Meloidogyne incognita); test: Meloidogyne incognita test; assay type: in vivo; settings: 20 ppm, after 14 days, lettuce
Procedure: Solvent: 125.0 parts by weight of acetone
To produce a suitable active compound formulation, 1 part by weight of active compound is mixed with the stated amount of solvent and the concentrate is diluted to the desired concentration with water.
Vessels are filled with sand, active compound solution, an egg/larvae suspension of the southern root-knot nematode (Meloidogyne incognita) and lettuce seeds. The lettuce seeds germinate and the plants develop. The galls develop on the roots.
After 14 days, the nematicidal efficacy in % is determined by the formation of galls. 100% means that no galls were found; 0% means that the number of galls on the treated plants corresponds to the untreated control.

[3] = tested on: green peach aphids (Myzus persicae); test: Myzus persicae oral test; assay type: in vivo; settings: 120 h, 4 ppm, after 5 days, read-out: efficacy
Procedure: Solvent: 100 parts by weight of acetone
To produce a suitable active compound formulation, 1 part by weight of active compound is dissolved with the stated parts by weight of solvent and made up to the desired concentration with water.
50 μl of the active compound formulation are transferred into microtitre plates and made up to a final volume of 200 μl with 150 μl of IPL41 insect medium (33%+15% sugar). Subsequently, the plates are sealed with parafilm, which a mixed population of green peach aphids (Myzus persicae) within a second microtitre plate is able to puncture and imbibe the solution.
After 5 days, the efficacy in % is determined. 100% means that all the aphids have been killed; 0% means that no aphids have been killed.

[4] = tested on: larvae of the mustard beetle (Phaedon cochleariae); test: Phaedon cochleariae spray test; assay type: in vivo; settings: foliar, 168 h, 100 g/ha, after 7 days, Chinese cabbage leaf discs, read-out: efficacy
Outline: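 Chinese cabbage leaf discs sprayed with compound formulated in acetone/DMF and emulsifier-containing water, then infested with mustard beetle larvae after drying. Efficacy (% larvae killed) scored after 7 days.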

[5] = tested on: caterpillars of the fall armyworm (Spodoptera frugiperda); test: Spodoptera frugiperda spray test; assay type: in vivo; settings: foliar, 168 h, 100 g/ha, after 7 days, maize leaf discs, read-out: efficacy
Outline: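 Maize leaf discs sprayed with compound formulated in acetone/dimethylformamide and diluted in water with 1000 ppm alkylaryl polyglycol ether emulsifier, then infested with fall armyworm caterpillars once dry. Efficacy read after 7 days as % caterpillars killed (100% = all dead, 0% = none).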

[6] = tested on: larvae of the mustard beetle (Phaedon cochleariae); test: Comparative Phaedon cochleariae spray test (PHAECO); assay type: in vivo; settings: 168 h, 7 dat, read-out: % efficacy
Procedure: (§1) Solvent: 14 parts by weight of dimethylformamide
(§2) Emulsifier: alkylaryl polyglycol ether
(§3) To produce a suitable active compound formulation, 1 part by weight of active compound is dissolved with the specified parts by weight of solvent and made up to the desired concentration with water containing an emulsifier concentration of 1000 ppm. To produce further test concentrations, the formulation is diluted with emulsifier-containing water. If the addition of ammonium salts or/and penetrants is required, these are each added in a concentration of 1000 ppm to the formulation solution.
Cabbage leaves (Brassica oleracea) are sprayed with an active ingredient formulation of the desired concentration and populated with larvae of the mustard beetle (Phaedon cochleariae).
After the desired time, the kill in % is determined. 100% means that all the beetle larvae have been killed; 0% means that no beetle larvae have been killed.

[7] = tested on: caterpillars of the armyworm (Spodoptera frugiperda); test: Comparative Spodoptera frugiperda spray test (SPODFR); assay type: in vivo; settings: 168 h, 7 dat, read-out: % efficacy
Procedure: as §1, §2, §3
Cotton leaves (Gossypium hirsutum) are sprayed with an active ingredient formulation of the desired concentration and populated with caterpillars of the armyworm (Spodoptera frugiperda).
(§4) After the desired time, the kill in % is determined. 100% means that all caterpillars have been killed; 0% means that none of the caterpillars have been killed.

[8] = tested on: caterpillars of the cotton bollworm (Heliothis armigera); test: Comparative Heliothis armigera spray test (HELIAR); assay type: in vivo; settings: Helicoverpa armigera, 168 h, 7 dat, read-out: % efficacy
Procedure: as §1, §2, §3
Cotton plants (Gossypium hirsutum) are sprayed with an active compound formulation of the desired concentration and, after drying, populated with caterpillars of the cotton bollworm (Heliothis armigera).
as §4

[9] = tested on: L2 larvae of the banded cucumber beetle (Diabrotica balteata); test: Comparative Diabrotica balteata drench test (DIABBA D); assay type: in vivo; settings: soil, 192 h, 8 dat, read-out: % efficacy
Procedure: Solvent: 7 parts by weight of dimethylformamide
Emulsifier: 2 parts by weight of alkylaryl polyglycol ether
To produce a suitable active ingredient formulation, 1 part by weight of active ingredient is mixed with the specified amounts of solvent and emulsifier, and the concentrate is diluted with water to the desired concentration, it being necessary to take into account the volume of soil which is drenched. It should be ensured that a concentration of 40 ppm of emulsifier in the soil is not exceeded. To produce further test concentrations, water is used for dilution.
In each case 5 maize corns (Zea mays) are sown into pots filled with earth, and the next day the pots are watered with the active compound preparation of the desired concentration. After one day, about 25 L2 larvae of the banded cucumber beetle (Diabrotica balteata) are added.
After 8 days, the efficacy in % is determined. 100% means that all 5 plants have germinated and grown; 0% means that none of the plants has emerged.

With `CCS(=O)(=O)c1c(-c2nc3cc(C(F)(F)F)cnc3n2C)nc2cc(C3(C#N)CC3)ccn12` [Example I-11, 1-{3-(Ethylsulfonyl)-2-[3-methyl-6-(trifluoromethyl)-3H-imidazo[4,5-b]pyridin-2-yl]imidazo[1,2-a]pyridin-7-yl}cyclopropanecarbonitrile] the chromatographic logP [1] was 2.88, the “nematicidal efficacy (formation of galls)” value [2] was 100% and the pest or weed control at 4 ppm [3] was 90%. It also gave a pest or weed control at 100 g/ha [4] of 100%, a pest or weed control at 100 g/ha [5] of 100% and an Emax at 0.8 ppm ([6]; 0.8 ppm) of 60%. For the same compound, the Emax at 4 ppm ([6]; 4 ppm) was 100%, the Emax at 0.16 ppm [7] was 100% and the Emax at 0.16 ppm [8] was 100%. It also gave an Emax at 0.8 ppm ([9]; 0.8 ppm) of 80% and an Emax at 4 ppm ([9]; 4 ppm) of 100%.
